Results on 19 compounds are retold here after patent US20190160021A1, “Substituted Stilbenes as Inhibitors of NF-kappaB and Activators of Nrf2” (STC.UNM, priority 2017, published 2019).

The test system of one series is Nrf2. As to the kind of experiment: Nrf2-ARE reporter-HepG2 stable cell line luciferase reporter assay for activators of Nrf2. It counts as cell-based. The following applies: Nrf2-ARE reporter-HepG2 cells; for EC50: from dose-response curves, read-out: EC50, concentration that produced 50% activation of Nrf2. The protocol:
A Nrf2-ARE reporter-HepG2 stable cell line (BPS Bioscience, San Diego, Calif.) is grown in a humidified atmosphere at 37° C. in 5% CO295% air. The cells are maintained in MEM medium with Earles balanced salts and L-glutamine supplemented with 10% fetal bovine serum (FBS), 1 mM sodium pyruvate, 1% non-essential amino acids, 100 units/ml penicillin, 100 μg/ml streptomycin, and 400 μg/ml Geneticin. One day prior to treatment, the Nrf2-ARE cells are plated into 24-well cell culture plates at approximately 30% confluency in the above media without Geneticin. The following day, fresh media with or without substituted trans stilbene or sulforaphane is applied to the cells. DMSO concentrations are kept at 0.1%. The cells are again placed in a humidified atmosphere at 37° C. in 5% CO2/95% air for 5 hours. Plate wells are gently washed with phosphate buffered saline (PBS) pH 7.4 and lysed with 1× passive lysis buffer (Promega, Madison, Wis., USA). The subsequent lysates are analyzed with the Luciferase Assay System (Promega) utilizing a GloMax 20/20 luminometer (Promega, Sunnyvale, Calif., USA). The firefly luciferase relative light units are normalized to protein (mg/ml) with BCATM Protein Assay Kit protein (Pierce, Rockford, Ill., USA)

As usually defined, the melting point is the temperature, or range, at which the solid turns liquid.

For the compound `COc1cccc(/C=C/c2ccccc2OC)c1` [trans stilbene 49, (E)-1-Methoxy-2-(3-methoxystyryl)benzene], the melting point fell in the range of 49 to 50 °C. On the same count and under the same terms, the figure for `COc1ccc(OC)c(/C=C/c2ccc(F)cc2)c1` [trans stilbene 18, (E)-2-(4-Fluorostyryl)-1,4-dimethoxybenzene] is 58 to 59 °C; for `Cc1ccc(/C=C/c2ccc(F)cc2F)cc1` [trans stilbene 37, (E)-2,4-Difluoro-1-(4-methylstyryl)benzene] it is 72 to 73 °C; for `COc1ccccc1/C=C/c1ccccc1F` [trans stilbene 10, (E)-1-Fluoro-2-(2-methoxystyryl)benzene] it is 34 to 35 °C. The same measure, in the same setting: the figure for `Fc1cccc(/C=C/c2cc(F)ccc2F)c1` [trans stilbene 34, (E)-1,4-Difluoro-2-(3-fluorostyryl)benzene] is 73 to 74 °C.

For the compound `COc1cccc(/C=C/c2cc(OC)ccc2OC)c1` [trans stilbene 50, (E)-1,4-Dimethoxy-2-(3-methoxystyryl)benzene], the melting point is 48 to 49 °C. Same read-out and setting: the figure for `Fc1ccc(/C=C/c2ccccc2F)cc1F` [trans stilbene 24, (E)-1,2-Difluoro-4-(2-fluorostyryl)benzene] is 85 to 86 °C. The same measure, in the same setting: the figure for `Fc1cccc(/C=C/c2ccc(F)c(F)c2)c1` [trans stilbene 30, (E)-1,2-Difluoro-4-(3-fluorostyryl)benzene] is 48 to 49 °C. Turning to `COc1cccc(/C=C/c2ccc(C(F)(F)F)cc2)c1OC` [trans stilbene 54, (E)-1,2-Dimethoxy-3-(4-(trifluoromethyl)styryl)benzene], the melting point was 67 to 69 °C. In addition, in the series with Nrf2 (screened at 15 μM), the “fold activation (extent of activation) of Nrf2” value was 65.5 fold.

Compound `Fc1ccc(/C=C/c2ccccc2F)c(F)c1` [trans stilbene 36, (E)-2,4-Difluoro-1-(2-fluorostyryl)benzene] showed a melting point of 84 to 85 °C.

For `Fc1cccc(/C=C/c2ccc(F)cc2F)c1` [trans stilbene 35, (E)-2,4-Difluoro-1-(3-fluorostyryl)benzene], the melting point lay within 60 to 61 °C. Still for that read-out and setting: in the case of `COc1cccc(/C=C/c2ccc(F)cc2)c1OC` [trans stilbene 17, (E)-1-(4-Fluorostyryl)-2,3-dimethoxybenzene] it was 50 to 51 °C. As to `C[S+]([O-])CCCCN=C=S` (centres unmarked) [sulforaphane], the EC50 with Nrf2 came to 1.2 µM.

Turning to `COc1ccc(/C=C/c2cc(F)ccc2F)cc1` [trans stilbene 23, (E)-1,4-Difluoro-2-(4-methoxystyryl)benzene], the melting point lay in the range of 109 to 110 °C.

The compound `Fc1ccc(/C=C/c2cc(F)ccc2F)cc1` [trans stilbene 40, (E)-1,4-Difluoro-2-(4-fluorostyryl)benzene] came in with a melting point of 76 to 77 °C. `COc1ccc(/C=C/c2ccc(F)c(F)c2)cc1` [trans stilbene 26, (E)-1,2-Difluoro-4-(4-methoxystyryl)benzene] showed a melting point of 73 to 74 °C. `COc1cccc(/C=C/c2ccc(C)cc2)c1OC` [trans stilbene 48, (E)-1,2-Dimethoxy-3-(4-methylstyryl)benzene]: the melting point was in the range of 38 to 40 °C. As to `Cc1ccc(/C=C/c2ccc(F)c(F)c2)cc1` [trans stilbene 22, (E)-1,2-Difluoro-4-(4-methylstyryl)benzene], the melting point is 90 to 92 °C. On to `Oc1ccc(C=Cc2cc(O)cc(O)c2)cc1` [Resveratrol, resveratrol], for which the EC50 in the series with Nrf2 came out at 5.4 µM.
